Target: prolyl endopeptidase (Elizabethkingia meningoseptica, UniProt P27028)
Assay: Measurement of anti-prolyl endopeptidase activity (Z-glycyl-proline-β-naphthylamide substrate)
Type: biochemical
Settings: amount for 50% inhibition, pH 7.0, 35° C., 10 minutes, absorbance at 410 nm
Procedure: The method of Yoshimoto and Tsuru [T. Yoshimoto and D. Tsuru, Agric. Biol. Chem., 42, 2417 (1978)] was used to measured the anti-prolyl endopeptidase activities of several compounds of the present invention. A mixture of 0.0025M Z-glycyl-proline-β-naphthylamide (0.25 ml), 0.1M phosphate buffer (pH, 7.0; 0.99 ml) and a solution of a particular anti-prolyl endopeptidase compound (0.01 ml) was incubated in a test tube at 37° C. for 3 minutes. Thereafter, 0.1 ml of a solution of prolyl endopeptidase (0.2 U/ml) was added and the mixture was incubated at 35° C. for 10 minutes. After the reaction, 2.0 ml of Triton X-100 in 1M acetate buffer (pH, 4.0) was added to the reaction mixture so that the final concentration of the surfactant was 10%. The mixture was left at room temperature for 15 minutes and the absorbance (a) at 410 nm was measured.
A sample of a blind test was prepared by using the buffer instead of the anti-prolyl endopeptidase compound and its absorbance (b) was also measured. The percent inhibition of prolyl endopeptidase was calculated by the formula: […]
and the amount of a specific compound needed to achieve 50% inhibition (IC50) was determined.

prolyl endopeptidase, sequence (P27028 21-705): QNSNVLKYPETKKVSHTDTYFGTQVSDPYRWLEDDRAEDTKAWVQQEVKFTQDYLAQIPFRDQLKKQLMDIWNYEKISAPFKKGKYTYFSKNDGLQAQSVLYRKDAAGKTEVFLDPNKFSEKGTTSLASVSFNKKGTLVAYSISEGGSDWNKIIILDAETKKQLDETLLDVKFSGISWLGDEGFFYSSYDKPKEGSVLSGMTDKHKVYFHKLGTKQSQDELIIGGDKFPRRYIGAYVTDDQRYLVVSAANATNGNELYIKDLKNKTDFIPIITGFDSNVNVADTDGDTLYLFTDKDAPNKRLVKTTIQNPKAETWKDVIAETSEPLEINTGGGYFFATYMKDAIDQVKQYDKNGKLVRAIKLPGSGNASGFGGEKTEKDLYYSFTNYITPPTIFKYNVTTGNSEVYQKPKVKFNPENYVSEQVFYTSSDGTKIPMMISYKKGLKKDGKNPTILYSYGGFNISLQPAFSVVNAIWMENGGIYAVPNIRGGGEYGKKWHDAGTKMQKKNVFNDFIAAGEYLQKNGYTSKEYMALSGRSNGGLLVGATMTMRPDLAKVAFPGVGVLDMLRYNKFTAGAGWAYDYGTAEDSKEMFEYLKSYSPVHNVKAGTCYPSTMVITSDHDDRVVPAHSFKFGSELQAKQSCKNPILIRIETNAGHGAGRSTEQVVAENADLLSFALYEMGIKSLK

| IC50 | SMILES |
| --- | --- |
| 0.70 μg/test tube | CC(C)CC(OC(=O)CCCc1ccccc1)C(=O)N1CCCC1 (stereo not drawn) [Example 1, N-[2-(γ-phenyl)butyryloxy-4-methylvaleryl]pyrrolidine] |
| 0.90 μg/test tube | CC(C)C(OC(=O)CCCc1ccccc1)C(=O)N1CCCC1 (stereo not drawn) [Example 2, N-[2-(γ-phenyl)butyryloxy-3-methylbutyryl]pyrrolidine] |
| 4.0 μg/test tube | CCCCCCC(OC(=O)CCCc1ccccc1)C(=O)N1CCCC1 (stereo not drawn) [Example 3, N-[2-(γ-phenyl)butyryloxy-n-capryloyl]pyrrolidine] |

Reference: patent publication US4757083A, “Novel pyrrolidinylamide ester derivatives having anti-prolyl endopeptidase activity and synthesis and use thereof” (Suntory Limited, priority 1985, dated 1988)
